Legend:
Type in all cases: cell-based
[1] = test system: Staphylococcus aureus 447; test: MIC, standard broth micro-dilution assay, SA 447
Description: (§1) The antibacterial efficacy of the present compounds is illustrated by Table III. The minimal inhibitory concentrations (MICs) were determined using a standard broth micro-dilution assay.

Enterococcus faecium 180 = test: MIC, standard broth micro-dilution assay, EF 180
Description: as §1

[2] = test system: Staphylococcus epidermidis 270; test: MIC, standard broth micro-dilution assay, SE 270
Description: as §1

[3] = test system: Staphylococcus aureus X778; test: MIC, standard broth micro-dilution assay, SA X778
Description: as §1

[4] = test system: Staphylococcus aureus 446; test: MIC, standard broth micro-dilution assay, SA 446
Description: as §1

[5] = test system: Staphylococcus haemolyticus 105; test: MIC, standard broth micro-dilution assay, SH 105
Description: as §1

[6] = test system: Enterococcus faecalis 276; test: MIC, standard broth micro-dilution assay, EF 276
Description: as §1

[7] = test system: Enterococcus faecium 180-1; test: MIC, standard broth micro-dilution assay, EF 180-1
Description: as §1

[8] = test system: Staphylococcus haemolyticus 415; test: MIC, standard broth micro-dilution assay, SH 415
Description: as §1

[9] = test system: Enterococcus gallinarum 245; test: MIC, standard broth micro-dilution assay, EG 245
Description: as §1

[10] = test system: Staphylococcus aureus S13E
Description: as §1

[11] = test system: Enterococcus faecalis 2041; test: MIC, standard broth micro-dilution assay, EF 2041
Description: as §1

[12] = test system: Staphylococcus aureus 491; test: MIC, standard broth micro-dilution assay, SA 491
Description: as §1

[13] = test system: Staphylococcus aureus 489; test: MIC, standard broth micro-dilution assay, SA 489
Description: as §1

[14] = test system: Staphylococcus aureus X400; test: MIC, standard broth micro-dilution assay, SA X400
Description: as §1

[15] = test system: Haemophilus influenzae RD; test: MIC, standard broth micro-dilution assay, HFRD
Description: as §1

[16] = test system: Staphylococcus aureus SA1199A; test: MIC, standard broth micro-dilution assay, SA 1199A
Description: as §1

[17] = test system: Resistant Enterococcus faecium and faecalis; test: MIC, standard broth micro-dilution assay, Resistant; conditions: geometric mean of 4-6 isolates
Description: as §1

Escherichia coli EC14 = test: MIC, standard broth micro-dilution assay, EC 14
Description: as §1

[18] = test system: Sensitive Enterococcus faecium and faecalis; test: MIC, standard broth micro-dilution assay, Sensitive; conditions: geometric mean of 4-6 isolates
Description: as §1

[19] = test system: Staphylococcus aureus SA1199; test: MIC, standard broth micro-dilution assay, SA 1199
Description: as §1

SMILES | minimal inhibitory concentration (MIC), SA 447 [1] | minimal inhibitory concentration (MIC), EF 180 (Enterococcus faecium 180) | minimal inhibitory concentration (MIC), SE 270 [2] | minimal inhibitory concentration (MIC), SA X778 [3] | minimal inhibitory concentration (MIC), SA 446 [4] | minimal inhibitory concentration (MIC), SH 105 [5] | minimal inhibitory concentration (MIC), EF 276 [6] | minimal inhibitory concentration (MIC), EF 180-1 [7] | minimal inhibitory concentration (MIC), SH 415 [8] | minimal inhibitory concentration (MIC), EG 245 [9] | minimal inhibitory concentration (MIC), SA S13E [10] | minimal inhibitory concentration (MIC), EF 2041 [11] | minimal inhibitory concentration (MIC), SA 491 [12] | minimal inhibitory concentration (MIC), SA 489 [13] | minimal inhibitory concentration (MIC), SA X400 [14] | minimal inhibitory concentration (MIC), HFRD [15] | minimal inhibitory concentration (MIC), SA 1199A [16] | minimal inhibitory concentration (MIC), Resistant [17] | minimal inhibitory concentration (MIC), EC 14 (Escherichia coli EC14) | minimal inhibitory concentration (MIC), Sensitive [18] | also measured
CC(C)CCC(=O)NC1C(=O)NC(CC(N)=O)C(=O)NC2C(=O)NC3C(=O)NC(C(=O)NC(C(=O)O)c4cc(O)cc(O)c4-c4cc3ccc4O)C(OC3CC(C)(N)C(O)C(C)O3)c3ccc(c(Cl)c3)Oc3cc2cc(c3OC2OC(CO)C(O)C(O)C2OC2CC(C)(NCc3ccc(-c4ccccc4)cc3)C(O)C(C)O2)Oc2ccc(cc2Cl)C1O (stereo not drawn) [Example 5, N^1-(4-methyl-n-pentanoyl)-N^DISACC-(p-phenylbenzyl)desleucylA82846B] | ≦.06 | 4 | 0.25 | 0.125 | 0.125 | ≦.06 | 1 | ≦.06 | 1 | 0.25 | 0.125 | ≦.06 | ≦.06 | 0.125 | ≦.06 | >64 | ≦.06 | 27 | >64 | 0.44 | minimal inhibitory concentration (MIC), SA 1199 [19]: 0.25
CC1OC(OC2c3ccc(c(Cl)c3)Oc3cc4cc(c3OC3OC(CO)C(O)C(O)C3OC3CC(C)(NCc5ccc(-c6ccccc6)cc5)C(O)C(C)O3)Oc3ccc(cc3Cl)C(O)C(NC(=O)c3ccc(-c5ccccc5)cc3)C(=O)NC(CC(N)=O)C(=O)NC4C(=O)NC3C(=O)NC2C(=O)NC(C(=O)O)c2cc(O)cc(O)c2-c2cc3ccc2O)CC(C)(N)C1O (stereo not drawn) [Example 6, N^1-(p-phenylbenzoyl)-N^DISACC-(p-phenylbenzyl)desleucylA82846B] | 2 | 2 | 0.5 | 0.5 | 1 | 0.5 | 2 | 0.25 | 2 | 1 | 1 | 2 | 0.5 | 2 | 1 | >64 | 0.125 | 38 | >64 | 3.5 | minimal inhibitory concentration (MIC), SA 1199 [19]: 0.5

Source: patent US6670446B1, “N1 modified glycopeptides” (Eli Lilly and Company, priority 1998, dated 2003)
